ChEMBL document CHEMBL6127124, “Structure-Activity Relationships and Discovery of (S)-5-(tert-Butyl)-11-(difluoromethoxy)-9-methoxy-2-oxo-1,2,5,6-tetrahydropyrido[2',1':2,3]imidazo[4,5-h]quinoline-3-carboxylic Acid (AB-161), a Novel Orally Available and Liver-Centric HBV RNA Destabilizer” (J Med Chem, 2024)
Values belong to the compound of their own block, whether it stands above or below them.

Columns and labels:
[1] = test system: RNA; experiment: Destabilization of HBV RNA assessed as decrease in HBsAg production by cell-based assay; details: Hepatitis B virus
[2] = AUC (0 to 24 hrs) in Sprague-Dawley rat at 10 mg/kg, po measured for 24 hrs by LC-MS/MS analysis; type: ADME, organism-based; details: in vivo
[3] = Ratio of total drug concentration in liver to plasma in Sprague-Dawley rat at 10 mg/kg, po measured for 24 hrs by LC-MS/MS analysis; type: ADME, organism-based; details: liver and plasma
[4] = biological target: T1, CYP1A2 (Homo sapiens, UniProt P05177); experiment: Inhibition of CYP1A2 in human liver microsomes using phenacetin as substrate preincubated for 30 min followed by NADPH addition measured after 12 mins by LC-MS/MS analysis; type: ADME, Microsome; details: human, liver microsomes, probe phenacetin
T1 sequence (P05177 whole entry): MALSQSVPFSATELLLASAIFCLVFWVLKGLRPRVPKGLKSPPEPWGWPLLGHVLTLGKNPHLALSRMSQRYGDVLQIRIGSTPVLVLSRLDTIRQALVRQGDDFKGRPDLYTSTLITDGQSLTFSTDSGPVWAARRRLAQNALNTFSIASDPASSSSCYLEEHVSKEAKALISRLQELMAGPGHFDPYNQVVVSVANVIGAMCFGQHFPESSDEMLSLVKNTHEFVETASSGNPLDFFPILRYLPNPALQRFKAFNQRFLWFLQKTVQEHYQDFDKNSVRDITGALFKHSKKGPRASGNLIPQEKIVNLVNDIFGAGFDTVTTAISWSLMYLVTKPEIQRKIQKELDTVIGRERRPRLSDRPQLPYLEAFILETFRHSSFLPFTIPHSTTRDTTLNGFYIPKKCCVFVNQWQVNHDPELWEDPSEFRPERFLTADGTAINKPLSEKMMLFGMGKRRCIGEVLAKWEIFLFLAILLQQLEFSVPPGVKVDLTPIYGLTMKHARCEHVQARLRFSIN

[5] = biological target: CYP2C9 (Homo sapiens, UniProt P11712); experiment: Inhibition of CYP2C9 in human liver microsomes using diclofenac as substrate preincubated for 30 min followed by NADPH addition measured after 12 mins by LC-MS/MS analysis; type: ADME, Microsome; details: human, liver microsomes, probe diclofenac
Sequence of CYP2C9 (P11712 whole entry): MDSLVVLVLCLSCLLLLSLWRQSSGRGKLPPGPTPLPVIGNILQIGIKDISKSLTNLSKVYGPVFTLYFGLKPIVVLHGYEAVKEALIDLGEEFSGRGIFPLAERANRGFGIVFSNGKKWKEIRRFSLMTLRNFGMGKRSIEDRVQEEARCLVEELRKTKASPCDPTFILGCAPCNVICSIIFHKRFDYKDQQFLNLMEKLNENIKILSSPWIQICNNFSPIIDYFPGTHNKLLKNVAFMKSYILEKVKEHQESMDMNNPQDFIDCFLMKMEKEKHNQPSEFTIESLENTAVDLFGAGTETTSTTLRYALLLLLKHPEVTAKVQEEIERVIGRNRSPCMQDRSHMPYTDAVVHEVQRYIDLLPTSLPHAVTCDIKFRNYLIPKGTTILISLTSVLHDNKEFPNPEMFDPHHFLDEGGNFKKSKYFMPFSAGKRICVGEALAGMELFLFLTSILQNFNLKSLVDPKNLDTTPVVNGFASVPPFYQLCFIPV

[6] = biological target: CYP2C19 (Homo sapiens, UniProt P33261); experiment: Inhibition of CYP2C19 in human liver microsomes using S-mephenytoin as substrate preincubated for 30 min followed by NADPH addition measured after 12 mins by LC-MS/MS analysis; type: ADME, Microsome; details: human, liver microsomes, probe S-mephenytoin
Sequence of CYP2C19 (P33261 whole entry): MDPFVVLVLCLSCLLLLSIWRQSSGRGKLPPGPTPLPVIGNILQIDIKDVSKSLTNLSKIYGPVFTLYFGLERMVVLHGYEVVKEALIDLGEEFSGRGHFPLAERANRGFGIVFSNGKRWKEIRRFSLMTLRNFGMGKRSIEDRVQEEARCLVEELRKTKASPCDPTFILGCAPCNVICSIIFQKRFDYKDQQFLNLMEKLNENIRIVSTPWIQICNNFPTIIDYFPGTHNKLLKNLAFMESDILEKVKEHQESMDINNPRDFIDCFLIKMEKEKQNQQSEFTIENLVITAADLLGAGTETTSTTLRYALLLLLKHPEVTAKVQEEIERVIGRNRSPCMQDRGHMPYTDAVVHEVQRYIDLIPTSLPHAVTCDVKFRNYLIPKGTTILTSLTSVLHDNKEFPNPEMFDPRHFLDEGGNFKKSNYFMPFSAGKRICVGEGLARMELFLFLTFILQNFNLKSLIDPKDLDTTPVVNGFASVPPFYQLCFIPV

[7] = biological target: CYP2D6 (Homo sapiens, UniProt P10635); experiment: Inhibition of CYP2D6 in human liver microsomes using dextromethorphan as substrate preincubated for 30 min followed by NADPH addition measured after 12 mins by LC-MS/MS analysis; type: ADME, Microsome; details: human, liver microsomes, probe dextromethorphan
Sequence of CYP2D6 (P10635 whole entry): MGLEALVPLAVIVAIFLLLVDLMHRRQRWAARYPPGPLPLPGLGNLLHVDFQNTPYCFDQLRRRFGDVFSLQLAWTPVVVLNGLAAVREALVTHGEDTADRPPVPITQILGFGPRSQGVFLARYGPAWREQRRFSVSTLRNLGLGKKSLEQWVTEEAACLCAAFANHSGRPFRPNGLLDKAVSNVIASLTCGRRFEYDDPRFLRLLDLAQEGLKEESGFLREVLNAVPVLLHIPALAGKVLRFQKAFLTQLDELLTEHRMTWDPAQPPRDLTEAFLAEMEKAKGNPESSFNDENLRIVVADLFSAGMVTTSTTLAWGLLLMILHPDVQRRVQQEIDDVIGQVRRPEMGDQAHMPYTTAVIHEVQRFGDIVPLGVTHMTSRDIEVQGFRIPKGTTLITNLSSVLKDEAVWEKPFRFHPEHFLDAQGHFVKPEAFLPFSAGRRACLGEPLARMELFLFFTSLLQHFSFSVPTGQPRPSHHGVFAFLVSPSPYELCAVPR

[8] = Drug concentration in Sprague-Dawley rat plasma at 10 mg/kg, po measured for 24 hrs by LC-MS/MS analysis; type: ADME, organism-based; details: read-out: Ct
[9] = Drug concentration in Sprague-Dawley rat liver at 10 mg/kg, po measured for 24 hrs by LC-MS/MS analysis; type: ADME, organism-based; details: read-out: Ct
[10] = Ratio of drug concentration in heart to plasma of Sprague-Dawley rat at 10 mg/kg, po measured for 24 hrs by LC-MS/MS analysis; type: ADME, organism-based; details: heart and plasma
[11] = Total Cmax in Beagle dog at 5 mg/kg, po qd measured after 91 days; type: ADME, organism-based, Canis lupus familiaris; details: in vivo, time 91 day
[12] = Total AUC (0 to 24 hrs) in Beagle dog at 5 mg/kg, po qd measured after 91 days; type: ADME, organism-based, Canis lupus familiaris; details: in vivo, time 91 day
[13] = Free Cmax in Beagle dog at 15 mg/kg, po qd measured after 91 days; type: ADME, organism-based, Canis lupus familiaris; details: in vivo, 2184 h, time 91 day
[14] = Free Cmax in Beagle dog at 45 mg/kg, po qd measured after 91 days; type: ADME, organism-based, Canis lupus familiaris; details: in vivo, 2184 h, time 91 day
[15] = Total Cmax in Beagle dog at 60 mg/kg, po qd measured after 91 days; type: ADME, organism-based, Canis lupus familiaris; details: in vivo, time 91 day
[16] = Free Cmax in Beagle dog at 60 mg/kg, po qd measured after 91 days; type: ADME, organism-based, Canis lupus familiaris; details: in vivo, 2184 h, time 91 day
[17] = Total AUC (0 to 24 hrs) in Beagle dog at 60 mg/kg, po qd measured after 91 days; type: ADME, organism-based, Canis lupus familiaris; details: in vivo, time 91 day
[18] = Free AUC (0 to 24 hrs) in Beagle dog at 60 mg/kg, po qd measured after 91 days; type: ADME, organism-based, Canis lupus familiaris; details: in vivo, 2184 h, time 91 day
[19] = Toxicity in Beagle dog assessed as splayed limbs at 60 mg/kg, po qd measured after 34 days; type: organism-based, Canis lupus familiaris; details: in vivo, 816 h, time 34 day
[20] = Toxicity in Beagle dog assessed as animal death at 60 mg/kg, po qd measured after 45 days; type: organism-based, Canis lupus familiaris; details: in vivo, 1080 h, time 45 day
[21] = Ratio of total drug concentration in liver to plasma in CD-1 mouse at 0.2 mg/kg, po measured for 12 hrs by LC-MS/MS analysis; type: ADME, organism-based; details: liver and plasma
[22] = Drug concentration in CD-1 mouse heart at 10 mg/kg, po measured for 24 hrs by LC-MS/MS analysis; type: ADME, organism-based; details: read-out: Ct
[23] = Drug concentration in Sprague-Dawley rat kidney at 5 mg/kg, po measured for 24 hrs by LC-MS/MS analysis; type: ADME, organism-based; details: read-out: Ct
[24] = Ratio of drug concentration in heart to plasma of CD-1 mouse at 10 mg/kg, po measured for 24 hrs by LC-MS/MS analysis; type: ADME, organism-based; details: heart and plasma
[25] = test system: Hepatitis B virus; experiment: Antiviral activity against HBV infected in human primary hepatocytes assessed as reduction in HBsAg production pre-infected cells with virus followed by inoculum removal and subsequent addition of compounds with replenishment on days 4,7,9,11 and 14 post-infection measured after 16 days; type: functional, organism-based; details: Hepatocyte, 384 h
[26] = test system: Hepatitis B virus; experiment: Antiviral activity against HBV infected in human primary hepatocytes assessed as reduction in HBV DNA production pre-infected cells with virus followed by inoculum removal and subsequent addition of compounds with replenishment on days 4,7,9,11 and 14 post-infection measured after 16 days; type: functional, organism-based; details: Hepatocyte, 384 h
[27] = Total AUC (0 to 24 hrs) in Beagle dog at 15 mg/kg, po qd measured after 60 days; type: ADME, organism-based, Canis lupus familiaris; details: in vivo, time 60 day
[28] = Free Cmax in Beagle dog at 45 mg/kg, po qd measured after 60 days; type: ADME, organism-based, Canis lupus familiaris; details: in vivo, 1440 h, time 60 day
[29] = Total AUC (0 to 24 hrs) in Beagle dog at 45 mg/kg, po qd measured after 60 days; type: ADME, organism-based, Canis lupus familiaris; details: in vivo, time 60 day
[30] = Free AUC (0 to 24 hrs) in Beagle dog at 45 mg/kg, po qd measured after 60 days; type: ADME, organism-based, Canis lupus familiaris; details: in vivo, 1440 h, time 60 day
[31] = Toxicity in male Beagle dog assessed as decrease in body weight at 15 to 45 mg/kg, po qd measured for 60 days; type: organism-based, Canis lupus familiaris; parameters: scale not given: the % may be the effect or the level left; details: in vivo, 1440 h, dose 15-45 mg/kg, time 60 day
[32] = Toxicity in female Beagle dog assessed as fold decrease in cholesterol level at 15 to 45 mg/kg, po qd measured for 60 days; type: organism-based, Canis lupus familiaris; parameters: scale not given: the % may be the effect or the level left; details: in vivo, 1440 h, dose 15-45 mg/kg, time 60 day
[33] = Toxicity in female Beagle dog assessed as decrease in total protein level at 15 to 45 mg/kg, po qd measured for 60 days; type: organism-based, Canis lupus familiaris; parameters: scale not given: the % may be the effect or the level left; details: in vivo, 1440 h, dose 15-45 mg/kg, time 60 day
[34] = Ratio of drug concentration in liver to plasma of Sprague-Dawley rat at 5 mg/kg, po measured for 24 hrs by LC-MS/MS analysis; type: ADME, organism-based; details: liver and plasma

SMILES: COCCCOc1cc2c(nc1OC)-c1cc(=O)c(C(=O)O)cn1[C@H](C(C)C)C2
- EC50 [1]: 1.4 nM
- AUC(0-t) at 24 h [2]: 13900 ng·h/mL
- Kp at 24 h [3]: 3
- IC50 at 12 min [4]: > 25000 nM
- IC50 at 12 min [5]: > 25000 nM
- IC50 at 12 min [6]: > 25000 nM
- IC50 at 12 min [7]: > 25000 nM
- concentration at 24 h [8]: 28.2 ng/g
- concentration at 24 h [9]: 93 ng/g
- Kp at 24 h [10]: 1.9
- Cmax [11]: 4680 ng/mL
- AUC at 2184 h [12]: 10500 ng·h/mL
- fCmax [13]: 4270 ng/mL
- fCmax [14]: 10300 ng/mL
- Cmax [15]: 18700 ng/mL
- fCmax [16]: 6940 ng/mL
- AUC at 2184 h [17]: 128000 ng·h/mL
- fAUC [18]: 47500 ng·h/mL
- Activity [19]: Toxic
- Activity [20]: Toxic

- Kp at 12 h [21]: 284
- concentration at 24 h [22]: 15 ng/g
- concentration at 24 h [23]: 5.5 ng/g
- Kp at 24 h [24]: 0.3
- AUC at 1440 h [27]: 3900 ng·h/mL
- fCmax [28]: 834 ng/mL
- AUC at 1440 h [29]: 65900 ng·h/mL
- fAUC [30]: 3100 ng·h/mL
SMILES: COc1cc(OC(F)F)c2nc3c(n2c1)C[C@@H](C(C)(C)C)c1cc(C(=O)O)c(=O)[nH]c1-3
- EC50 [25]: 8.5 nM
- EC50 [26]: 8.5 nM
- Activity [31]: < 15%
- Activity [32]: < 30%
- Activity [33]: < 15%

- Kp at 12 h [21]: 120
- concentration at 24 h [22]: 15 ng/g
- concentration at 24 h [23]: 6 ng/g
- Kp at 24 h [24]: 0.2
- Kp at 24 h [34]: 920
SMILES: CC(C)(C)[C@@H]1Cc2c(nc3c(C(F)(F)F)cc(C4CC4)cn23)-c2[nH]c(=O)c(C(=O)O)cc21
